Data set [1] deals with coupled enzyme (α-glucosidase derived from yeast and β-glucosidase derived from almond). The experiment in a line: Coupled enzyme resistance test. The data set is classed as biochemical. To be noted: 37° C., pH 7.0, FIG. 3 / FIG. 4; for hydrolysis by the coupled enzyme (in words): 3.0 mM substrate solution, α-glucosidase 1053 units/ml, β-glucosidase 15.5 units/ml, 400 nm for 5 minutes; for stability in a measuring system (in words): coupled enzyme system. Here is the method: 2-chloro-4-nitrophenyl 5^5 -eno-4^5 -O-mesyl-β-D-maltopentaoside (molecular weight: 1044; referred to hereinafter as substrate of the present invention) obtained in Example 1 was dissolved in a 50 mM phosphate buffer (pH=7.0) containing 40 mM NaCl and 2 mM MgCl2 to a concentration of 3.0 mM.
2-chloro-4-nitrophenyl β-D-maltopentaoside (molecular weight: 984; referred to hereinafter as reference substrate) obtained in the conventional method was dissolved in a 50 mM phosphate buffer (pH=7.0) containing 40 mM NaCl and 2 mM MgCl2 to a concentation of 3.0 mM.
Coupled enzyme solution was prepared by dissolving a commercially available α-glucosidase derived from yeast and a commercially available β-glucosidase derived from almond in a 50 mM phosphate buffer (pH=7.0) containing 40 mM NaCl and 2 mM MgCl2 to a concentration of 1053 units/ml and 15.5 units/ml, respectively. As the commercially available α- and β-glucosidases, those available from Toyobo Co., Ltd. were used.
After 1.0 ml of a coupled enzyme solution was heated at 37° C. for 5 minutes, it was mixed sufficiently with 2.0 ml of the substrate solution of the present invention or the reference substrate solution and heated at 37° C. for 3 minutes. Then, variations of the absorbance at a wavelength of 400 nm were measured for 5 minutes.
The test was carried out in the same manner as in Example 9 except that 2-chloro-4-nitrophenyl 6^5 -azido-6^5 -deoxy-β-D-maltopentaoside (molecular weight: 1009; referred to hereinafter as the substrate of the present invention) obtained in Example 3 was employed as the substrate (a). In FIG. 4, marks Δ show the plottings of the substrate solution (a) and the marks .quadrature. show the plottings of the substrate solution (b).

Data set [2] deals with T1, amylase derived from human pancreatic juice (human P type α-amylase) (Homo sapiens, UniProt P04746).
T1 sequence (P04746 16-511): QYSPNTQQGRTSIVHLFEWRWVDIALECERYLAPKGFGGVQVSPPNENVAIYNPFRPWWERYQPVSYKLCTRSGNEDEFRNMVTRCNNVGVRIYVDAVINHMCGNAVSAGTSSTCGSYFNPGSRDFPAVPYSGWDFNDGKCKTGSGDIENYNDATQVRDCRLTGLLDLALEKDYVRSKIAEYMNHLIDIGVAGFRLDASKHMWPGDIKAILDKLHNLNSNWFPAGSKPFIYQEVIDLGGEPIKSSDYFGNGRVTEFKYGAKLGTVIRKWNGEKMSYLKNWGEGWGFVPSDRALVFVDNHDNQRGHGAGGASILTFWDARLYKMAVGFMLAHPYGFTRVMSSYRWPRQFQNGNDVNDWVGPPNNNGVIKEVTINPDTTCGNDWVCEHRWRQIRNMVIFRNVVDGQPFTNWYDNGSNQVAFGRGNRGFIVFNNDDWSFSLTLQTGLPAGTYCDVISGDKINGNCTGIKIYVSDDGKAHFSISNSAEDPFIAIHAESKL
The experiment in a line: Hydrolysis rate, P type α-amylase. The settings on record: relative to hydrolysis rate of 3 mM G5CNP defined as 10, substrate 7-9 times the Km. The data set is classed as biochemical. On the procedure: The coupled enzyme solution was prepared in the same manner as in the step (2) of Example 5.
(§1) Commercially available human P type and S type α-amylase solutions having a concentration of ca. 500 IU/l were prepared in the same manner as in the step (3) of Example 5.
With 250 μl of the α-amylase solution prepared in (iii) was mixed 1.0 ml of the coupled enzyme. The mixture was heated at 37° C. for 1 minute, and 2.0 ml of the substrate solution was added with stirring to the mixture. The variation of absorbance at 400 nm was measured for 2 minutes after heating the mixture at 37° C. for 2 minutes. The hydrolysis rate of each substrate, namely the variable absorbance per unit time was expressed with the relative values to the hydrolysis rate of 3 mM G5CNP (the reference substrate) which is defined as 10.
(§2) P: amylase derived from human pancreatic juice, […]

A further data set in a line: Solubility in water. The settings on record: 20 g of substrate added to 100 ml of water. The data set is classed as physicochemical. On the procedure: To 100 ml of water was added 20 g of a substrate, and the dissolution state was observed.
The target in data set [3] is T1, amylase derived from human pancreatic juice (human P type α-amylase). Put plainly: Patterns of action (hydrolyzed product by HPLC), P type α-amylase. The data set is classed as biochemical. The settings on record: 0.5 mM substrate, 37° C., 20 minutes. Here is the method: as §1
(§3) To 1.0 ml of the substrate solution was added 100 μl of the α-amylase solution prepared in the paragraph (iii) of the aforementioned hydrolysis rate, and the mixture, after stirred sufficiently, was subjected to reaction at 37° C. for 20 minutes. The hydrolyzed product was determined quantitatively by the high performance liquid chromatography of the reaction mixture.
as §2

Data set [4] deals with T2, amylase derived from human saliva (human S type α-amylase) (Homo sapiens, UniProt P0DUB6).
T2 sequence (P0DUB6 16-511): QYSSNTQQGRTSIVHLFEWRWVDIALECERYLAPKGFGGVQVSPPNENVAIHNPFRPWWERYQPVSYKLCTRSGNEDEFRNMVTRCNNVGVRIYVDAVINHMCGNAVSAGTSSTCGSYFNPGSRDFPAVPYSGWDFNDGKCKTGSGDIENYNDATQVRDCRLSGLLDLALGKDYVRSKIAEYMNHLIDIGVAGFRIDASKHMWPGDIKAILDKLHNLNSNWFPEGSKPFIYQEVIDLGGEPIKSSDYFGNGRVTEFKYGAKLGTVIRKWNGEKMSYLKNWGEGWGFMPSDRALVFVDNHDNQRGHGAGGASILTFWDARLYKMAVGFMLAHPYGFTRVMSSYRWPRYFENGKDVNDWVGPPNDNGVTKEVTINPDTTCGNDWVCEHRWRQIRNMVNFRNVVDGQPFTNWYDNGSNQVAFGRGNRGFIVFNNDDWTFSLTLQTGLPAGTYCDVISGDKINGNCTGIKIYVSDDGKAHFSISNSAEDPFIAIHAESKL
The experiment in a line: Patterns of action (hydrolyzed product by HPLC), S type α-amylase. The data set is classed as biochemical. The settings on record: 0.5 mM substrate, 37° C., 20 minutes. Here is the method:
as §1, §3
S: amylase derived from human saliva.

Consider two compounds from patent US5302514A, “Maltooligoside derivative, reagent for determining α-amylase activity containing the same as effective ingredient and a process for determining the α-amylase activity using same” (Kikkoman Corporation, priority 1991, dated 1994).

For `[N-]=[N+]=NC[C@H]1O[C@H](O[C@H]2[C@H](O)[C@@H](O)[C@@H](O[C@H]3[C@H](O)[C@@H](O)[C@@H](O[C@H]4[C@H](O)[C@@H](O)[C@@H](O[C@H]5[C@H](O)[C@@H](O)[C@H](Oc6ccc([N+](=O)[O-])cc6Cl)O[C@@H]5CO)O[C@@H]4CO)O[C@@H]3CO)O[C@@H]2CO)[C@H](O)[C@@H](O)[C@@H]1O` [ADG5CNP, 2-chloro-4-nitrophenyl 6^5-azido-6^5-deoxy-β-D-maltopentaoside], in data set [1], the “hydrolysis by the coupled enzyme (in words)” value is listed as “not hydrolyzed” and the “stability in a measuring system (in words)” value was “stable”. In data set [2], this compound registered a Hydrolysis rate of 10. In addition, in the data set “Solubility in water”, the Solubility in water result is “Good”. Besides, in data set [3], the “Patterns of action, hydrolyzed product G2CNP” value was 97 mol %; the “Patterns of action, hydrolyzed product G3CNP” value is reported as 3 mol %; the “Patterns of action, hydrolyzed product G4CNP” value was 0 mol %; the “Patterns of action, hydrolyzed product GCNP” value is 0 mol %. In data set [4], the “Patterns of action, hydrolyzed product G2CNP” value came out at 100 mol %; the “Patterns of action, hydrolyzed product G3CNP” value was 0 mol %; the “Patterns of action, hydrolyzed product G4CNP” value is reported as 0 mol %; the “Patterns of action, hydrolyzed product GCNP” value is given as 0 mol %.

For `C=C1O[C@H](O[C@H]2[C@H](O)[C@@H](O)[C@@H](O[C@H]3[C@H](O)[C@@H](O)[C@@H](O[C@H]4[C@H](O)[C@@H](O)[C@@H](O[C@H]5[C@H](O)[C@@H](O)[C@H](Oc6ccc([N+](=O)[O-])cc6Cl)O[C@@H]5CO)O[C@@H]4CO)O[C@@H]3CO)O[C@@H]2CO)[C@H](O)[C@@H](O)[C@@H]1OS(C)(=O)=O` [EMG5CNP, 2-chloro-4-nitrophenyl 5^5-eno-4^5 -O-mesyl-β-D-maltopentaoside], in data set [1], the “hydrolysis by the coupled enzyme (in words)” value was “not hydrolyzed” and the “stability in a measuring system (in words)” value is listed as “stable”. In addition, the Hydrolysis rate in data set [2] was 10. Besides, in “Solubility in water”, the Solubility in water entry is given as “Good”. In data set [3], the “Patterns of action, hydrolyzed product G2CNP” value is on record as 97 mol %; the “Patterns of action, hydrolyzed product G3CNP” value is 0 mol %; the “Patterns of action, hydrolyzed product G4CNP” value is listed as 0 mol %; the “Patterns of action, hydrolyzed product GCNP” value was determined as 3 mol %. Besides, in data set [4], the “Patterns of action, hydrolyzed product G2CNP” value came out at 97 mol %; the “Patterns of action, hydrolyzed product G3CNP” value worked out at 0 mol %; the “Patterns of action, hydrolyzed product G4CNP” value is given as 0 mol %; the “Patterns of action, hydrolyzed product GCNP” value stood at 3 mol %.
